Data as given in the supplement of paper PMC10307832.

Experiments:
Experiment in all cases: relative viability (nuclei count vs DMSO), 5 days (fraction); higher = more cells survive
XMD13-2 + Tozasertib = compound: C1CC1C(=O)NC2=NNC3=C2C=CC(=C3)C4=CC(=CC=C4)C(=O)NC5CC5 [XMD13-2] + Cc1cc(Nc2cc(N3CCN(C)CC3)nc(Sc3ccc(NC(=O)C4CC4)cc3)n2)n[nH]1 [Tozasertib] (partner 0.1 µM)
Outline: (§1)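 Lung cancer cell lines in 1536-well plates were dosed by pin tool the day after seeding, either with one drug alone or with a fixed anchor-drug dose plus five library-drug doses (not always all listed) in √10 steps. After 5 days, cells were fixed and their nuclei stained in one step (final 0.05% Triton X-100, 1% formaldehyde, 1 ug/ml Hoechst), then counted on 4× images. Relative viability is the nuclei count in treated wells divided by that in vehicle wells. Values are medians of duplicate plates.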

ALW-II-49-7 + OSI-027 = compound: Cc1ccc(C(=O)Nc2cccc(C(F)(F)F)c2)cc1Nc1cncc(C(N)=O)c1 [ALW-II-49-7] + COc1cccc2cc(-c3nc([C@H]4CC[C@H](C(=O)O)CC4)n4ncnc(N)c34)[nH]c12 [OSI-027] (partner 0.5 µM)
Outline: as §1

Dasatinib + AZD7762 = compound: Cc1nc(Nc2ncc(C(=O)Nc3c(C)cccc3Cl)s2)cc(N2CCN(CCO)CC2)n1 [Dasatinib] + NC(=O)Nc1cc(-c2cccc(F)c2)sc1C(=O)N[C@H]1CCCNC1 [AZD7762] (partner 0.2 µM)
Outline: as §1

XMD13-2 + Navitoclax = compound: C1CC1C(=O)NC2=NNC3=C2C=CC(=C3)C4=CC(=CC=C4)C(=O)NC5CC5 [XMD13-2] + CC1(C)CCC(c2ccc(Cl)cc2)=C(CN2CCN(c3ccc(C(=O)NS(=O)(=O)c4ccc(N[C@H](CCN5CCOCC5)CSc5ccccc5)c(S(=O)(=O)C(F)(F)F)c4)cc3)CC2)C1 [Navitoclax] (partner 0.5 µM)
Outline: as §1

Row | Cell Line | relative viability (XMD13-2 + Tozasertib; first compound 0.05 µM) | relative viability (XMD13-2 + Tozasertib; first compound 0.1581 µM) | relative viability (XMD13-2 + Tozasertib; first compound 0.5 µM) | relative viability (XMD13-2 + Tozasertib; first compound 1.581 µM) | relative viability (XMD13-2 + Tozasertib; first compound 5 µM) | relative viability (ALW-II-49-7 + OSI-027; first compound 0.08 µM) | relative viability (ALW-II-49-7 + OSI-027; first compound 0.253 µM) | relative viability (ALW-II-49-7 + OSI-027; first compound 0.8 µM) | relative viability (ALW-II-49-7 + OSI-027; first compound 2.53 µM) | relative viability (ALW-II-49-7 + OSI-027; first compound 8 µM) | relative viability (Dasatinib + AZD7762; first compound 0.005 µM) | relative viability (Dasatinib + AZD7762; first compound 0.01581 µM) | relative viability (Dasatinib + AZD7762; first compound 0.05 µM) | relative viability (Dasatinib + AZD7762; first compound 0.1581 µM) | relative viability (Dasatinib + AZD7762; first compound 0.5 µM) | relative viability (XMD13-2 + Navitoclax; first compound 0.05 µM) | relative viability (XMD13-2 + Navitoclax; first compound 0.1581 µM) | relative viability (XMD13-2 + Navitoclax; first compound 0.5 µM) | relative viability (XMD13-2 + Navitoclax; first compound 1.581 µM) | relative viability (XMD13-2 + Navitoclax; first compound 5 µM)
1 | 201T | 1.02 | 0.921 | 0.867 | 0.872 | 0.828 | 0.68 | 0.841 | 0.462 | 0.493 | 0.684 | 0.848 | 0.635 | 0.493 | 0.455 | 0.302 | 1.22 | 1.25 | 1.2 | 1.19 | 1.29
2 | A549 | – | – | – | – | – | – | – | – | – | – | – | – | – | – | – | 1.53 | 1.23 | 1.13 | 1.16 | 1.17
3 | A-427 | 0.213 | 0.199 | 0.2 | 0.159 | 0.195 | 0.412 | 0.484 | 0.472 | 0.444 | 0.473 | 0.72 | 0.745 | 0.536 | 0.52 | 0.519 | 1.01 | 0.961 | 1.09 | 0.87 | 0.989
4 | ABC-1 | 0.187 | 0.2 | 0.163 | 0.213 | 0.205 | 0.404 | 0.423 | 0.481 | 0.494 | 0.379 | 0.74 | 0.689 | 0.758 | 0.747 | 0.383 | – | – | – | – | –
5 | BEN | 0.512 | 0.436 | 0.491 | 0.488 | 0.42 | 0.548 | 0.317 | 0.294 | 0.288 | 0.403 | 0.747 | 0.558 | 0.483 | 0.402 | 0.43 | 0.186 | 0.0776 | 0.0786 | 0.0451 | 0.0694
6 | CAL-12T | 0.344 | 0.41 | 0.307 | 0.31 | 0.368 | 0.734 | 0.745 | 0.612 | 0.759 | 0.503 | 0.637 | 0.584 | 0.681 | 0.613 | 0.538 | 1.41 | 1.06 | 1 | 1.18 | 1.24
7 | COR-L23 | 0.232 | 0.18 | 0.197 | 0.18 | 0.185 | 0.556 | 0.709 | 0.828 | 0.715 | 0.677 | – | – | – | – | – | 1.03 | 1.07 | 1.18 | 1.11 | 0.899
8 | COR-L 105 | 0.374 | 0.385 | 0.339 | 0.376 | 0.425 | 0.644 | 0.719 | 0.66 | 0.644 | 0.753 | – | – | – | – | – | 0.818 | 0.761 | 1.25 | 0.684 | 0.872
9 | Calu-6 | – | – | – | – | – | – | – | – | – | – | – | – | – | – | – | 0.915 | 0.829 | 0.808 | 0.776 | 0.548
10 | ChaGo-K-1 | 0.234 | 0.214 | 0.254 | 0.222 | 0.258 | 0.472 | 0.622 | 0.616 | 0.496 | 0.429 | 0.854 | 0.77 | 0.822 | 0.705 | 0.549 | 1.06 | 0.882 | 0.799 | – | 0.942
11 | EBC-1 | – | – | – | – | – | – | – | – | – | – | – | – | – | – | – | 0.563 | 0.375 | 0.404 | 0.232 | 0.176
12 | EKVX | 0.468 | 0.414 | 0.405 | 0.394 | 0.45 | 0.579 | 0.773 | 0.578 | 0.653 | 0.679 | 0.684 | 0.663 | 0.515 | 0.221 | 0.172 | 1.17 | 0.869 | 0.859 | 0.973 | 0.997
13 | EMC-BAC-2 | 0.284 | 0.28 | 0.19 | 0.273 | 0.267 | 0.351 | 0.39 | 0.336 | 0.296 | 0.305 | 1.05 | 1.03 | 0.776 | 0.591 | 0.391 | 1.29 | 1.22 | 1.21 | 1.18 | 1.27
14 | EPLC-272H | 0.228 | 0.289 | 0.262 | 0.269 | 0.136 | 0.277 | – | 0.278 | 0.293 | 0.265 | 0.222 | 0.245 | 0.173 | 0.125 | 0.147 | 1.23 | 1.13 | 1.26 | 0.814 | 0.649
15 | H3255 | 0.567 | 0.844 | 0.757 | 0.487 | 0.507 | 0.556 | 0.58 | 0.559 | 0.483 | 0.388 | 0.899 | 0.856 | 0.832 | 0.686 | 0.372 | 0.709 | 0.564 | 0.518 | 0.444 | 0.526
16 | HARA | 0.0933 | 0.117 | 0.106 | 0.0964 | 0.105 | 0.547 | 0.441 | 0.298 | 0.387 | 0.442 | 0.31 | 0.129 | 0.298 | 0.291 | 0.184 | 1.1 | 1.08 | 1.16 | 1.13 | 1.14
17 | HCC-15 | 0.522 | 0.422 | 0.402 | 0.425 | 0.463 | 0.647 | 0.75 | 0.619 | 0.663 | 0.536 | 1.37 | 1.12 | 1.07 | 0.897 | 0.585 | 0.792 | 0.661 | 0.704 | 0.725 | 0.535
18 | HCC-44 | 1.06 | 1.09 | 1.09 | 0.903 | 0.842 | – | 0.743 | 0.325 | 0.533 | 0.414 | 1.07 | 0.992 | 1.19 | 1.33 | 1.1 | 1.01 | 1.03 | 1.12 | 0.949 | 1
19 | HCC-78 | 0.362 | 0.436 | 0.372 | 0.346 | 0.282 | 0.34 | 0.394 | – | 0.36 | 0.395 | 0.668 | 0.618 | 0.472 | 0.372 | 0.226 | 0.851 | 0.641 | 0.817 | 0.582 | 0.671
